# In publication PMC5761851, “Application of a phenotypic drug discovery strategy to identify biological and chemical starting points for inhibition of TSLP production in lung epithelial cells” (PLoS ONE, 2018):
# Assays:
# Assay in all cases: kinase selectivity panel
# Assay type in all cases: biochemical
# Axl = target: T1, Axl (Homo sapiens, UniProt P30530); details: read-out: percentage of control activity (POC), Axl
# T1 construct: purchased Eurofins Pharma Discovery Services (KinaseProfiler; Cerep BioPrint panel)
# T1 sequence (P30530 26-894): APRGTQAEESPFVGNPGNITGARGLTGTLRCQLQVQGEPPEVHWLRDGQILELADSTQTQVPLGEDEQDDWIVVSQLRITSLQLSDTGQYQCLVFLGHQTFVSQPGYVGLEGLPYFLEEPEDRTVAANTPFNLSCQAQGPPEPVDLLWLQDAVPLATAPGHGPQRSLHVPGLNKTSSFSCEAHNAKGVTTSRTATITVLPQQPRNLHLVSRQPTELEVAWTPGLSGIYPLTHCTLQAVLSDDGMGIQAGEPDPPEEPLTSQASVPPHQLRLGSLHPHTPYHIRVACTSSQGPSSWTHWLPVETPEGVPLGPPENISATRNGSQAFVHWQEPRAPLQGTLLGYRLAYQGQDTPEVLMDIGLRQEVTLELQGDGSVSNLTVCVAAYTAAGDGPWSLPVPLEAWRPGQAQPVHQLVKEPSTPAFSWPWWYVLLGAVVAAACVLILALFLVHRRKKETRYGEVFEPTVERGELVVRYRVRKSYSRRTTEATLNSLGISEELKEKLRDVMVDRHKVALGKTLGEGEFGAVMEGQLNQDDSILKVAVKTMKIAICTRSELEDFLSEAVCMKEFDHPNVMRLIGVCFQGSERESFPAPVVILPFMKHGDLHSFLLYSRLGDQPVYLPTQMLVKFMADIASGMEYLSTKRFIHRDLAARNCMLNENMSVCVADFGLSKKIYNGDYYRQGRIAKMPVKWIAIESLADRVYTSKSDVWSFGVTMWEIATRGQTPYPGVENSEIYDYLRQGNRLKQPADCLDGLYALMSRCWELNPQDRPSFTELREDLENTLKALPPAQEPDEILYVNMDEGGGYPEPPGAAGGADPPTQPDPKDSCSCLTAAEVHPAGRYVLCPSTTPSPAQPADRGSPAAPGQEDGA
# How it was run: (§1)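 First, 125 representative kinases were exposed to 10 μM compound in duplicate; next, selected activities were titrated over 9 concentrations in duplicate, and IC50 values were calculated.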
# BRK = target: T2, BRK (Homo sapiens, UniProt Q13882); details: read-out: percentage of control activity (POC), BRK
# T2 construct: purchased Eurofins Pharma Discovery Services (KinaseProfiler; Cerep BioPrint panel)
# How it was run: as §1
# CK1δ = target: T3, CK1δ (Homo sapiens, UniProt P48730); details: read-out: percentage of control activity (POC), CK1δ
# T3 construct: purchased Eurofins Pharma Discovery Services (KinaseProfiler; Cerep BioPrint panel)
# How it was run: as §1
# MKK7β = target: T4, MKK7β (Homo sapiens, UniProt O14733); details: read-out: percentage of control activity (POC), MKK7β
# T4 construct: purchased Eurofins Pharma Discovery Services (KinaseProfiler; Cerep BioPrint panel)
# T4 sequence (O14733 1-419): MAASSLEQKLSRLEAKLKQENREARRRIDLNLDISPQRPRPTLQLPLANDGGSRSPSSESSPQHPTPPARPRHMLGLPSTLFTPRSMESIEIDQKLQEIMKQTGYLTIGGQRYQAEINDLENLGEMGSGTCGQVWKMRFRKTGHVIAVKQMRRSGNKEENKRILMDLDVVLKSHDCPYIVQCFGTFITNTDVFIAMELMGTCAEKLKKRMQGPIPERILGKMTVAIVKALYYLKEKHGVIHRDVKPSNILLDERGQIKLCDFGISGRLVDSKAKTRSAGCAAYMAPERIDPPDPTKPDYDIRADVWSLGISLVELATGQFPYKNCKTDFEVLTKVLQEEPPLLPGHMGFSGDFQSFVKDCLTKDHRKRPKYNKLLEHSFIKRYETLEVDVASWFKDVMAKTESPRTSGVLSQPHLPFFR
# How it was run: as §1
# PKG1α = target: T5, PKG1α (Homo sapiens, UniProt Q13976); details: read-out: percentage of control activity (POC), PKG1α
# T5 construct: purchased Eurofins Pharma Discovery Services (KinaseProfiler; Cerep BioPrint panel)
# T5 sequence (Q13976 1-671): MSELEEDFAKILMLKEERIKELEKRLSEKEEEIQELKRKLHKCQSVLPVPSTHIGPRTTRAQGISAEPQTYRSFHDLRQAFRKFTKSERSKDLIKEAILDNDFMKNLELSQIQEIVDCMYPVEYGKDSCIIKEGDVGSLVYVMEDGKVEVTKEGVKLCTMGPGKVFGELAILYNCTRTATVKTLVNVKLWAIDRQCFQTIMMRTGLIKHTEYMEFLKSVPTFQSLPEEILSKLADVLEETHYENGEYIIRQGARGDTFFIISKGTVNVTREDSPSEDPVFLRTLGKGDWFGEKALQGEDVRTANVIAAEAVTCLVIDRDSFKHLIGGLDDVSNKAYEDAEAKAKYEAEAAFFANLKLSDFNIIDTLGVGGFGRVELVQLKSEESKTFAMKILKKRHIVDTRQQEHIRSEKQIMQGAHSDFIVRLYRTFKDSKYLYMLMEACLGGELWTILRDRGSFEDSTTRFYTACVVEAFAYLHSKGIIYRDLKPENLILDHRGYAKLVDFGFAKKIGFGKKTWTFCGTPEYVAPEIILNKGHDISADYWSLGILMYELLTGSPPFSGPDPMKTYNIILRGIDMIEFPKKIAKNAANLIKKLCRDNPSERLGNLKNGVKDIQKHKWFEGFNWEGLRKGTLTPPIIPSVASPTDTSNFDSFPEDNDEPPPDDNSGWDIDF
# How it was run: as §1
# ROCK-II = target: T6, ROCK-II (Homo sapiens, UniProt O75116); details: read-out: percentage of control activity (POC), ROCK-II
# T6 construct: purchased Eurofins Pharma Discovery Services (KinaseProfiler; Cerep BioPrint panel)
# How it was run: as §1
# SAPK4 = target: T7, SAPK4 (Homo sapiens, UniProt O15264); details: read-out: percentage of control activity (POC), SAPK4
# T7 construct: purchased Eurofins Pharma Discovery Services (KinaseProfiler; Cerep BioPrint panel)
# T7 sequence (O15264 1-365): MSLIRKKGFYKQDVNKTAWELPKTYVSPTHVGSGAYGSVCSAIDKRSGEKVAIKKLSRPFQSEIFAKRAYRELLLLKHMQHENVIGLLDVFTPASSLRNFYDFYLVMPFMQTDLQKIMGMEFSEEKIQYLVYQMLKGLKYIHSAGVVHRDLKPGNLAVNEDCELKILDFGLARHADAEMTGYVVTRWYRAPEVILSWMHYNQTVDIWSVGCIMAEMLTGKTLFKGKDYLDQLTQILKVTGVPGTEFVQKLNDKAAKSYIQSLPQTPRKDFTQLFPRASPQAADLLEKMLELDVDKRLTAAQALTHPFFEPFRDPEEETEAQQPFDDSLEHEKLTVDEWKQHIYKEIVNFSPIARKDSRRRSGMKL
# How it was run: as §1
# cKit = target: T8, cKit (Homo sapiens, UniProt P10721); details: read-out: percentage of control activity (POC), cKit
# T8 construct: purchased Eurofins Pharma Discovery Services (KinaseProfiler; Cerep BioPrint panel)
# How it was run: as §1
# T8 sequence (P10721 26-976): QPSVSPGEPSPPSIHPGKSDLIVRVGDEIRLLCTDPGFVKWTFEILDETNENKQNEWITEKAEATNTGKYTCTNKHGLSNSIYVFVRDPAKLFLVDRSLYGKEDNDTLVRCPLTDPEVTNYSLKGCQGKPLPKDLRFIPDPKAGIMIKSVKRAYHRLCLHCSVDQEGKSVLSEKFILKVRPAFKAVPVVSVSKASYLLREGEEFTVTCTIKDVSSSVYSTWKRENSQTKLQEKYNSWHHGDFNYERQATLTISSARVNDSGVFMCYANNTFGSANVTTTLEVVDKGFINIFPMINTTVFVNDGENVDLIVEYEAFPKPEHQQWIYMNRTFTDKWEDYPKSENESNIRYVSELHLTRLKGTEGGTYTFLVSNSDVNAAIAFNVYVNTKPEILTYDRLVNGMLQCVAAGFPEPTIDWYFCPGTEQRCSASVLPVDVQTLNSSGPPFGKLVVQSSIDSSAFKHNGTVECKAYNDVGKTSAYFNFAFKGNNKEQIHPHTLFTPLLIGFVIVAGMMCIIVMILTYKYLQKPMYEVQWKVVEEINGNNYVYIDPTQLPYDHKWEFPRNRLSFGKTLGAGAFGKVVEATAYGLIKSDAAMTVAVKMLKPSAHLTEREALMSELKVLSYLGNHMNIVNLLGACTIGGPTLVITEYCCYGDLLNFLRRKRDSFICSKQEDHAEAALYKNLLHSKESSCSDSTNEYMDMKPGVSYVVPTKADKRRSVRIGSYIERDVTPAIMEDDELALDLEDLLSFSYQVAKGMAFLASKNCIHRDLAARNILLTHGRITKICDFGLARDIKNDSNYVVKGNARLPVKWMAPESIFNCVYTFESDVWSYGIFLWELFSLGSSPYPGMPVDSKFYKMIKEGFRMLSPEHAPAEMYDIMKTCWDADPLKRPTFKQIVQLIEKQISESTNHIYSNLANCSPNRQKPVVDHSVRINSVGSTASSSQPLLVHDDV
# T6 sequence (O75116 whole entry): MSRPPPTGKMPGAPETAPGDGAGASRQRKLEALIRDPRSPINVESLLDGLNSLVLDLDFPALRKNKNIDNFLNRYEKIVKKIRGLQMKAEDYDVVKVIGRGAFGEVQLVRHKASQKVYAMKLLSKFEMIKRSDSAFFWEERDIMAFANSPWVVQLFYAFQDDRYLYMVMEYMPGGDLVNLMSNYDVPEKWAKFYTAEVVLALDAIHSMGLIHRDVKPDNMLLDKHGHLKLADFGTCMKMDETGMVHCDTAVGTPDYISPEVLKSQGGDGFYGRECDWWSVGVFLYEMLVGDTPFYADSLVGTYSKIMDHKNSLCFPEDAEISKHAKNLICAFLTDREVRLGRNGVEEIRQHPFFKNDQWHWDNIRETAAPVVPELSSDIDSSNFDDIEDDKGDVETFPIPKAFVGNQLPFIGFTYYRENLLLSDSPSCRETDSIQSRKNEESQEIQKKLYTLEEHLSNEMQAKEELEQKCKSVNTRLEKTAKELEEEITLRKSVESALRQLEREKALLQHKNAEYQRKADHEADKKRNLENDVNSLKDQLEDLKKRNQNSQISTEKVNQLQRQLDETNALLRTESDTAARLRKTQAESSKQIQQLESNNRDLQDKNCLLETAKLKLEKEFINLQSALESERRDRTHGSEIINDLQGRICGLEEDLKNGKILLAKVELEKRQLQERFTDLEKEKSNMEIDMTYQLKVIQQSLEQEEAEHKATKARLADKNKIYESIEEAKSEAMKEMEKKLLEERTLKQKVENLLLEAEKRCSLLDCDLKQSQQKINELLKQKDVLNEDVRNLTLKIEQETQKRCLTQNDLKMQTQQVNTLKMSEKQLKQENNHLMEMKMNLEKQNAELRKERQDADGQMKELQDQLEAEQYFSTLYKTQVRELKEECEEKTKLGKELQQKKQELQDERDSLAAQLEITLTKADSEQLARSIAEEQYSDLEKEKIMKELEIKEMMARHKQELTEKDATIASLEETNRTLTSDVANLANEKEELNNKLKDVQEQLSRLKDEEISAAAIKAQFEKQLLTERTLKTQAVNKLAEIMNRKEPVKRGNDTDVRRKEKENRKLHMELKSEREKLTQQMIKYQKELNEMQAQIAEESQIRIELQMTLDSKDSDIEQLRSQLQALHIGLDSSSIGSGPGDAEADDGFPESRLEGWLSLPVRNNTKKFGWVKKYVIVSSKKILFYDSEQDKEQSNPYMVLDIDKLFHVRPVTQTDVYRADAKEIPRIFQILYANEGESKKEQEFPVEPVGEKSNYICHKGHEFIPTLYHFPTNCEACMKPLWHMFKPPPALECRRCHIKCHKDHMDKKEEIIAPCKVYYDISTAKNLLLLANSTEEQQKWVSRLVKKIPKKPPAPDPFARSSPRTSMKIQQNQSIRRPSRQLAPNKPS
# T2 sequence (Q13882 whole entry): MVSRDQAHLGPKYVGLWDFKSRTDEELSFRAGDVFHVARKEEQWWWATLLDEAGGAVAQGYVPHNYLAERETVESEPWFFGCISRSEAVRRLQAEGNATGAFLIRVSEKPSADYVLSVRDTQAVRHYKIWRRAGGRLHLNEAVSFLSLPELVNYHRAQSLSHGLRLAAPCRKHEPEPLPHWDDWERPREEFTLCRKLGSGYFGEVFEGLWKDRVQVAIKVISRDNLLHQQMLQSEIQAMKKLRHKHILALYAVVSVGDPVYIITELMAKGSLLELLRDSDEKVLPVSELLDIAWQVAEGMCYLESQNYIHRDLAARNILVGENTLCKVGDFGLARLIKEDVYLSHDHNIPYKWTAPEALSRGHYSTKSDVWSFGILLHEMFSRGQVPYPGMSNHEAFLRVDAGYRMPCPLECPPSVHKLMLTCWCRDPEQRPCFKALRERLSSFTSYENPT
# T3 sequence (P48730 whole entry): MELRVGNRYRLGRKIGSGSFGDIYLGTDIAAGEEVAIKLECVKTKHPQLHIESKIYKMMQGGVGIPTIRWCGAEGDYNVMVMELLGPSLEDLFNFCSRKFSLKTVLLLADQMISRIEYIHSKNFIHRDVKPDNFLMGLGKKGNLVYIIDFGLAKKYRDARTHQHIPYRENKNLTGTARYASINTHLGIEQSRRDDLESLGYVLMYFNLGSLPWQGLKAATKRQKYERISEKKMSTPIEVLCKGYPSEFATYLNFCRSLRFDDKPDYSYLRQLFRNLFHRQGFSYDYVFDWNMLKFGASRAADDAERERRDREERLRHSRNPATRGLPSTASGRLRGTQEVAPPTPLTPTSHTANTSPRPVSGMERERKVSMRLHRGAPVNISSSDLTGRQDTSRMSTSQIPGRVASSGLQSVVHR
SMILES,remaining activity at 10 µM (Axl),remaining activity at 10 µM (BRK),remaining activity at 10 µM (CK1δ),remaining activity at 10 µM (MKK7β),remaining activity at 10 µM (PKG1α),remaining activity at 10 µM (ROCK-II),remaining activity at 10 µM (SAPK4),remaining activity at 10 µM (cKit)
Cn1cc(-c2cccc(-c3nc(C(=O)NC4C5CC6CC4CC(O)(C6)C5)c(N)nc3N)c2)cn1 (stereo not shown) [compound 4],59%,71%,50%,101%,97%,85%,88%,102%
CS(=O)(=O)N1CCN(c2ccc(Nc3ncc(C(N)=O)c(NC4CC4)n3)cc2)CC1 [compound 5],12%,39%,23%,7%,66%,3%,32%,1%

# The next lines start with the values.
remaining activity at 10 µM (Axl),remaining activity at 10 µM (BRK),remaining activity at 10 µM (CK1δ),remaining activity at 10 µM (MKK7β),remaining activity at 10 µM (PKG1α),remaining activity at 10 µM (ROCK-II),remaining activity at 10 µM (SAPK4),remaining activity at 10 µM (cKit),SMILES
98%,98%,110%,110%,108%,100%,96%,96%,CC(C)(C)N1CCC(c2cc(-c3ccc(F)cc3Cl)c3cc[n+]([O-])c(-c4c(Cl)cccc4Cl)c3n2)CC1 [compound 2]
88%,103%,100%,116%,102%,96%,94%,88%,Cc1ccc(C(=O)NCC2CC2)cc1-c1ccc2c(c1)NC(=O)C21CCCC1 [compound 3]
91%,98%,111%,112%,105%,93%,81%,92%,"COc1c(NC(=O)c2ccc(C)c(-c3nnc4c(NCC(C)(C)C)nccn34)c2)cc(C(C)(C)C)cc1NS(C)(=O)=O [compound 7, reference compound]"
